pIC50: −log10 of the molar value.
Test system: LG0567-F671-PDC complex spheroids viability
Assay: Anticancer human tumor LG0567-F671-PDC patient-derived lung adenocarcinoma cell line growth inhibition [RAS]
Conditions: for pIC50: curve of first compound; for viability, T/C: stronger effect = lower value
From the text: RAS pathway inhibitors in Combinations in Complex Spheroids
A high-throughput screen of multi-cell type tumor spheroids was designed to identify active combinations of RAS pathway inhibitors and targeted small molecules. Complex spheroids include a stromal component modeled by human endothelial cells (HUVEC) and fibroblasts modeled by human mesenchymal stem cells (MSCs). The concentration ranges selected for each drug and investigational agent were based upon clinically achievable concentrations if the clinical Cmax of the agent was known.
Compounds. The drugs and investigational agents: abemaciclib (NSC768073), cobimetinib (NSC768068), divarasib (GDC6063, NSC841802), docetaxel (NSC628503), GDC-1971 (RLY-1971, NSC841576), gemcitabine (NSC613327), inavolisib (NSC800729), ipatasertib (NSC767898), KB-0742 (NSC834161), MRTX-1133 (NSC836407), osimertinib (NSC779217), RMC-4630 (NSC839698), RMC-6236 (NSC851965), RMC-6291 (NSC852671), Ro-3306 (NSC812927), sapanisertib (NSC764658), SN-38 (NSC673596), staurosporine (NSC755774), SY5609 (NSC837396), and tovorafenib (DAY101, NSC766906), were obtained from the National Cancer Institute (NCI) Developmental Therapeutics Program Chemical Repository. The FDA-approved anticancer drug set is available from the NCI Developmental Therapeutics Program. […] The stock solutions were prepared in dimethyl sulfoxide (DMSO, Sigma-Aldrich, St. Louis, MO, cat. D2650) at 800-fold the tested concentration and stored at -70 degrees C prior to their use. All drugs and investigational agents were tested over a range starting from a high concentration at or near the clinical Cmax and decreasing in half-log increments. If the clinical Cmax for an agent had not been determined, the highest concentration tested was 10 microM.
Cell Culture. All cells were maintained in an incubator at 37 degrees C and 5% CO2 with 95% humidity. The PDC lines were cultured according to standard operating procedures established by the NCI PDMR. All PDCs were thawed and cultured in Matrigel-coated flasks prepared with a working solution of 1X Ham's F-12 nutrient mix, without supplementation (Invitrogen, Waltham, MA, cat. 11765054), 100 U/mL penicillin-streptomycin (Invitrogen, cat. 15140122), and 2.5% Matrigel (Corning Inc., Corning, NY, cat. 354248) for the first three passages. The 362531-283-R-J2-PDC and 782815-120-R-J1-PDC lines were cultured in 6C/Colon 1B media, which includes advanced DMEM/F-12 (Thermo Fisher Scientific, cat. 12634028), 10 mM HEPES (Thermo Fisher Scientific, cat. 15630080), 1X GlutaMAX supplement (Thermo Fisher Scientific, cat. 35050061), 0.1 mg/mL primocin (InvivoGen, San Diego, CA, cat. ant-pm-2), 10% defined fetal bovine serum, heat inactivated (HyClone Laboratories Inc., Logan, UT, cat. SH30070.03HI), 50% L-WRN conditioned media (ATCC, cat. CRL-3276), 1.25 mM N-Acetyl-L-cysteine (Sigma-Aldrich, cat. A9165), 10 mM nicotinamide (Sigma-Aldrich, cat. N0636), 1X B-27 supplement (Thermo Fisher Scientific, cat. 17504044), 1X N-2 supplement (Thermo Fisher Scientific, cat. 17502048), 50 ng/mL human EGF (Thermo Fisher Scientific, cat. PHG0311), and 10 microM Y-27632 dihydrochloride (Tocris Bioscience, cat. 1254). The K12877-001-R-J1-PDC line was cultured in 6I media, which includes all 6C/Colon 1B media plus 10 ng/mL human FGF-10 (PeproTech, cat. 100-26), 1 ng/mL human FGF-2 (PeproTech, cat. 100-18B), 1 µM prostaglandin E2 (Tocris Bioscience, cat. 2296), […] hydrocortisone (Sigma-Aldrich, cat. H4001), and […] bovine insulin (Sigma-Aldrich, cat. I6634). The K86415-001-R-J1-PDC line was cultured in 6D media, which includes all 6C/Colon 1B media components minus the L-WRN conditioned media. The 485176-168-R4-J1-PDC was cultured in PANC media, which includes all 6C/Colon 1B media plus 100 ng/mL human FGF-10 (PeproTech, cat. 100-26), 500 nM SB-431542 (Selleckchem, cat. S1067), and 10 nM gastrin (Tocris Bioscience, cat. 3006). […]
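Also: spheroids exposed to compound for seven days before readout.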
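For pIC50 in this document: luminescence signal used as a proxy for viable cells.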

In the case of C=CC(=O)N1CCN(c2nc(OCC3CCCN3C)nc3c(F)c(-c4nc(N)cc(C)c4C(F)(F)F)c(Cl)cc23)C(C)C1 (configuration not stated) + CCn1c(-c2cc(N3CCN(C)CC3)cnc2C(C)OC)c2c3cc(ccc31)-c1csc(n1)CC(NC(=O)C1CC1C)C(=O)N1CCCC(N1)C(=O)OCC(C)(C)C2, the pIC50 (second compound 0.000949 µM) was greater than 8.50, the pIC50 (second compound 0.003 µM) was greater than 8.50 and the pIC50 (second compound 0.00949 µM) was greater than 8.50. For the same compound, the pIC50 (second compound 0.03 µM) was greater than 8.50, the pIC50 (second compound 0.0949 µM) was greater than 8.50 and the pIC50 (second compound 0.3 µM) was greater than 8.50. For the same compound, the viability, T/C (second compound 0.000949 µM, first compound 0.00316 µM) was 9.35%, the viability, T/C (second compound 0.000949 µM, first compound 0.01 µM) was 9.1% and the viability, T/C (second compound 0.000949 µM, first compound 0.0316 µM) was 8%. For the same compound, the viability, T/C (second compound 0.000949 µM, first compound 0.1 µM) was 8.66%, the viability, T/C (second compound 0.000949 µM, first compound 0.316 µM) was 7.95% and the viability, T/C (second compound 0.000949 µM, first compound 1 µM) was 7.17%. It also gave a viability, T/C (second compound 0.003 µM, first compound 0.00316 µM) of 5.52%, a viability, T/C (second compound 0.003 µM, first compound 0.01 µM) of 6.02% and a viability, T/C (second compound 0.003 µM, first compound 0.0316 µM) of 5.86%. The viability, T/C (second compound 0.003 µM, first compound 0.1 µM) was 7.54%, the viability, T/C (second compound 0.003 µM, first compound 0.316 µM) was 7.84% and the viability, T/C (second compound 0.003 µM, first compound 1 µM) was 6.72%. It also gave a viability, T/C (second compound 0.00949 µM, first compound 0.00316 µM) of 5.09%, a viability, T/C (second compound 0.00949 µM, first compound 0.01 µM) of 4.57% and a viability, T/C (second compound 0.00949 µM, first compound 0.0316 µM) of 5.64%. The viability, T/C (second compound 0.00949 µM, first compound 0.1 µM) was 4.78%, the viability, T/C (second compound 0.00949 µM, first compound 0.316 µM) was 5.6% and the viability, T/C (second compound 0.00949 µM, first compound 1 µM) was 4.86%. It also gave a viability, T/C (second compound 0.03 µM, first compound 0.00316 µM) of 3.64%, a viability, T/C (second compound 0.03 µM, first compound 0.01 µM) of 3.58% and a viability, T/C (second compound 0.03 µM, first compound 0.0316 µM) of 3.59%. For the same compound, the viability, T/C (second compound 0.03 µM, first compound 0.1 µM) was 3.48%, the viability, T/C (second compound 0.03 µM, first compound 0.316 µM) was 4.15% and the viability, T/C (second compound 0.03 µM, first compound 1 µM) was 3.55%. It also gave a viability, T/C (second compound 0.0949 µM, first compound 0.00316 µM) of 3.37%, a viability, T/C (second compound 0.0949 µM, first compound 0.01 µM) of 3.02% and a viability, T/C (second compound 0.0949 µM, first compound 0.0316 µM) of 2.73%. For the same compound, the viability, T/C (second compound 0.0949 µM, first compound 0.1 µM) was 2.71%, the viability, T/C (second compound 0.0949 µM, first compound 0.316 µM) was 2.59% and the viability, T/C (second compound 0.0949 µM, first compound 1 µM) was 3.04%. It also gave a viability, T/C (second compound 0.3 µM, first compound 0.00316 µM) of 2.73%, a viability, T/C (second compound 0.3 µM, first compound 0.01 µM) of 2.79% and a viability, T/C (second compound 0.3 µM, first compound 0.0316 µM) of 2.44%. It also gave a viability, T/C (second compound 0.3 µM, first compound 0.1 µM) of 2.81%, a viability, T/C (second compound 0.3 µM, first compound 0.316 µM) of 2.66% and a viability, T/C (second compound 0.3 µM, first compound 1 µM) of 2.96%.
